For assay [1], the system named is Plasmopara viticola. Briefly: Plasmopara viticola (downy mildew of grapevine) leaf disk assay. The class given is in vivo. The settings on record: foliar, 168 h, preventive, seven days after inoculation, read-out: control of fungal infection, Plasmopara viticola.
For assay [2], the system named is Puccinia recondita f.sp. tritici. Briefly: Puccinia recondita f.sp. tritici (wheat brown rust) leaf disk assay. It is filed as in vivo. The settings on record: foliar, 216 h, preventive, nine days after inoculation, read-out: control of fungal infection, Puccinia recondita f.sp. tritici.
The test system of assay [3] is Erysiphe graminis f.sp. tritici. Briefly: Erysiphe graminis f.sp. tritici (wheat powdery mildew) leaf disk assay. It is filed as in vivo. The settings on record: Blumeria graminis, foliar, 96 h, preventive, four days after inoculation, read-out: control of fungal infection, Erysiphe graminis fsp. tritici.
The test system of assay [4] is Tetranychus urticae. To be noted: foliar, 192 h, read-out: control of Tetranychus urticae.
Assay [5] deals with Plutella xylostella. Briefly: Plutella xylostella (Diamond back moth) artificial diet test. To be noted: 120 h, read-out: control of Plutella xylostella.
Assay [6] deals with Pyricularia oryzae. Briefly: whole plant or invertebrate. It is filed as in vivo. To be noted: foliar, 96 h.
Assay [7] relates to Aedes aegypti. Briefly: Aedes aegypti (Yellow fever mosquito) larvae test. The class given is in vivo. To be noted: 48 h.
Assay [8] deals with Heliothis virescens. Briefly: Heliothis virescens (Tobacco budworm) egg test on artificial diet. To be noted: 96 h, read-out: control of Heliothis virescens.
For assay [9], the system named is Phytophthora infestans. Briefly: whole plant or invertebrate. To be noted: foliar, 96 h, read-out: control of fungal infection, Phytophthora infestans. It is filed as in vivo.
Where [10] appears, read: read-out: control of fungal infection, Pyricularia oryzae (at least 60% list).
Where [11] appears, read: read-out: control of fungal infection, Pyricularia oryzae (at least 80% list).

Molecules are shown by their SMILES. Where two headings read alike, the source gives them in different places.

For `CCc1ncnc(N2C3CCC2CC(=NOCc2ccc(C(C)C)cc2)C3)c1Cl` [Example 5.20], the pest or weed control at 200 ppm in assay [1], in assay [2], in assay [3] and in [4] was at least 80% in each case.

For `CCc1ncnc(N2C3CCC2CC(=NOCc2ccc(OC(F)(F)F)cc2)C3)c1Cl` [Example 5.66], the pest or weed control at 200 ppm in assay [2], in assay [5], in assay [3] and in [4] was at least 80% each time.

For `Cc1csc2ncnc(N3[C@@H]4CC[C@H]3CC(Oc3ccc(C(F)(F)F)cn3)C4)c12` (some centres unmarked) [Example 2.71], the pest or weed control at 200 ppm was at least 60% in assay [6] (setting [10]), at least 80% in assay [1], at least 80% in assay [3] and at least 80% in assay [4]. Besides, the pest or weed control at 2 ppm in [7] was at least 80%.

Regarding `CCc1ncnc(N2C3CCC2CC(=NOCc2ccc(C#N)cc2)C3)c1Cl` [Example 5.14], the pest or weed control at 200 ppm in [6] (setting [11]), in assay [8], in assay [2], in [5] and in [3] was at least 80% each time.

Consider `CCCC1COC2(CC3CCC(C2)N3c2ncnc3sccc23)O1` (centres unmarked) [Example 6.10], for which the pest or weed control at 200 ppm in assay [6] (setting [11]), in assay [1], in assay [2], in assay [5], in assay [3] and in assay [4] was at least 80% throughout. This compound also displayed a pest or weed control at 2 ppm in assay [7] of at least 80%.

Take `CCc1ncnc(N2C3CCC2CC(=Cc2ccccc2)C3)c1Cl` [Example 3.6]: the pest or weed control at 200 ppm in [6] (setting [10]) is at least 60%; in [5], at least 80%; in assay [9] it was at least 80%; in [4] it was at least 80%. In assay [7], this compound returned a pest or weed control at 2 ppm of at least 80%.

`Fc1c(Cl)cccc1CON=C1CC2CCC(C1)N2c1ncnc2sccc12` [Example 5.217]: the pest or weed control at 200 ppm was at least 60% in [6] (setting [10]); at least 80% in assay [6] (setting [11]); at least 80% in [2]; at least 80% in assay [5]; at least 80% in assay [3]; at least 80% in [4]. Also, in assay [7], the pest or weed control at 2 ppm is at least 80%.

Regarding `Cn1nc(C(F)(F)F)cc1C(=O)N1[C@@H]2CC[C@H]1CC(Oc1ccc(C(F)(F)F)cn1)C2` (some centres unmarked) [Example 2.222], the pest or weed control at 200 ppm in assay [8] and in assay [3] was at least 80% throughout.

Regarding `Fc1ccc(F)c(CON=C2CC3CCC(C2)N3c2ncnc3sccc23)c1F` [Example 5.228], the pest or weed control at 200 ppm is at least 60% in [6] (setting [10]); at least 80% in [1]; at least 80% in assay [2]; at least 80% in [5]; at least 80% in [9]; at least 80% in [3]. Moreover, the pest or weed control at 200 ppm in assay [4] was at least 80%. This compound yielded a pest or weed control at 2 ppm in assay [7] of at least 80%.

Turning to `CCc1ncnc(N2C3CCC2CC(=NOCc2ccccc2)C3)c1Cl` [Example 5.5], the pest or weed control at 2 ppm in [7] was at least 80%. Also, the pest or weed control at 200 ppm in [8], in [2], in assay [5], in assay [9] and in [3] was at least 80% each time.

`FC(F)(F)Oc1ccc(CON=C2CC3CCC(C2)N3c2ncnc3sccc23)cc1` [Example 5.210]: in assay [7], the pest or weed control at 2 ppm is at least 80%. Further, the pest or weed control at 200 ppm in assay [2], in assay [5], in assay [9], in assay [3] and in [4] was at least 80% each time.

For `Cc1ccc(CON=C2CC3CCC(C2)N3c2ncnc3sccc23)cc1C` [Example 5.179], the pest or weed control at 200 ppm in assay [6] (setting [10]) was at least 60%; in assay [2], at least 80%; in assay [5], at least 80%; in assay [3] it was at least 80%; in assay [4], at least 80%. In addition, the pest or weed control at 2 ppm in assay [7] was at least 80%.

`c1ccc2cc(CON=C3CC4CCC(C3)N4c3ncnc4sccc34)ccc2c1` [Example 5.147]: in assay [7], the pest or weed control at 2 ppm was at least 80%. Besides, the pest or weed control at 200 ppm in assay [2], in assay [5], in assay [9], in [3] and in assay [4] was at least 80% in each case.

On to `CCc1ncnc(N2C3CCC2CC(=NOCc2cc(F)ccc2F)C3)c1Cl` [Example 5.73], for which the pest or weed control at 200 ppm in assay [6] (setting [10]) was at least 60%; in assay [8] it was at least 80%; in [2], at least 80%; in [5], at least 80%; in assay [3], at least 80%. In [7], this compound returned a pest or weed control at 2 ppm of at least 80%.

Take `Fc1cc(Cl)cnc1OC1C[C@H]2CC[C@@H](C1)N2c1ncnc2sccc12` (some centres unmarked) [Example 1.72]: the pest or weed control at 200 ppm is at least 60% in assay [6] (setting [10]); at least 80% in assay [6] (setting [11]); at least 80% in [8]; at least 80% in [2]; at least 80% in assay [3].

Consider `Fc1ccc(CON=C2CC3CCC(C2)N3c2ncnc3sccc23)c(Cl)c1` [Example 5.192], for which the pest or weed control at 200 ppm is at least 60% in assay [6] (setting [10]), at least 80% in assay [5] and at least 80% in [4]. The compound also returned a pest or weed control at 2 ppm in assay [7] of at least 80%.

Consider `CCc1ncnc(N2C3CCC2CC(=CCOc2cccc(F)c2)C3)c1Cl` [Example 3.12], for which the pest or weed control at 200 ppm in assay [6] (setting [11]), in assay [8], in assay [2] and in [5] was at least 80% throughout. Moreover, in assay [7], the pest or weed control at 2 ppm is at least 80%.

Take `FC(F)(F)c1ccc(OC2C[C@H]3CC[C@@H](C2)N3c2ccnc3c(Cl)cccc23)nc1` (some centres unmarked) [Example 2.206]: the pest or weed control at 200 ppm in [6] (setting [10]) was at least 60%; in assay [1], at least 80%; in [4] it was at least 80%.

Regarding `CCC(=O)c1cc(F)c(OC2C[C@H]3CC[C@@H](C2)N3c2ncnc3sccc23)c(F)c1` (some centres unmarked) [Example 2.66], the pest or weed control at 2 ppm in [7] is at least 80%. For the same compound, the pest or weed control at 200 ppm in assay [1], in [5], in assay [9], in [3] and in assay [4] was at least 80% throughout.

The compound `CCc1ncnc(N2C3CCC2CC(Cc2ccc(C)cc2)C3)c1Cl` (centres unmarked) [Example 7.26] gave a pest or weed control at 2 ppm in assay [7] of at least 80%. In addition, the pest or weed control at 200 ppm in assay [8] and in assay [5] was at least 80% in each case.

Consider `FC(F)(F)c1ccc(CON=C2CC3CCC(C2)N3c2ncnc3sccc23)cc1` [Example 5.160], for which the pest or weed control at 200 ppm in [6] (setting [11]), in [1], in assay [2], in [5], in assay [9] and in assay [3] was at least 80% throughout. Besides, the pest or weed control at 200 ppm in assay [4] was at least 80%. In addition, in [7], the pest or weed control at 2 ppm is at least 80%.

Consider `CCc1ncnc(N2C3CCC2CC(=CCOc2ccc(Cl)c(OC)c2)C3)c1Cl` [Example 3.13], for which the pest or weed control at 200 ppm in assay [6] (setting [11]), in assay [8] and in assay [2] was at least 80% in each case. Further, the pest or weed control at 2 ppm in assay [7] is at least 80%.

As to `COCc1ncnc(N2[C@@H]3CC[C@H]2CC(Oc2ccc(C(F)(F)F)cn2)C3)c1OC` (some centres unmarked) [Example 2.167], the pest or weed control at 200 ppm in assay [8] and in assay [3] was at least 80% each time.

`C#CCN(CC#C)C1C[C@H]2CC[C@@H](C1)N2c1ncnc(CC)c1Cl` (some centres unmarked) [Example 4.19]: the pest or weed control at 200 ppm in [8] and in assay [2] was at least 80% throughout.

In assay [7], `CCc1ncnc(N2C3CCC2CC(=NOCc2cc(F)c(F)cc2F)C3)c1Cl` [Example 5.87] displayed a pest or weed control at 2 ppm of at least 80%. Moreover, the pest or weed control at 200 ppm in assay [8], in assay [2], in assay [5] and in [3] was at least 80% each time.

Take `CCc1ccc(CON=C2CC3CCC(C2)N3c2ncnc3sccc23)cc1` [Example 5.151]: the pest or weed control at 200 ppm in assay [6] (setting [11]), in assay [1], in assay [2], in assay [9], in [3] and in assay [4] was at least 80% each time. Moreover, in assay [7], the pest or weed control at 2 ppm is at least 80%.
